Reference: paper PMC3577938 (Organic & biomolecular chemistry, 2013)

Assays:
[1] = biological target: T1, human TLR8 (Homo sapiens, UniProt Q9NR97); assay: Human TLR8-specific reporter gene assay; type: cell-based; conditions: for Agonistic Activity (μM) TLR8: EC50 in human TLR8-specific reporter gene assay, Inactive = EC50 >100 μM
T1 sequence (Q9NR97 27-1041): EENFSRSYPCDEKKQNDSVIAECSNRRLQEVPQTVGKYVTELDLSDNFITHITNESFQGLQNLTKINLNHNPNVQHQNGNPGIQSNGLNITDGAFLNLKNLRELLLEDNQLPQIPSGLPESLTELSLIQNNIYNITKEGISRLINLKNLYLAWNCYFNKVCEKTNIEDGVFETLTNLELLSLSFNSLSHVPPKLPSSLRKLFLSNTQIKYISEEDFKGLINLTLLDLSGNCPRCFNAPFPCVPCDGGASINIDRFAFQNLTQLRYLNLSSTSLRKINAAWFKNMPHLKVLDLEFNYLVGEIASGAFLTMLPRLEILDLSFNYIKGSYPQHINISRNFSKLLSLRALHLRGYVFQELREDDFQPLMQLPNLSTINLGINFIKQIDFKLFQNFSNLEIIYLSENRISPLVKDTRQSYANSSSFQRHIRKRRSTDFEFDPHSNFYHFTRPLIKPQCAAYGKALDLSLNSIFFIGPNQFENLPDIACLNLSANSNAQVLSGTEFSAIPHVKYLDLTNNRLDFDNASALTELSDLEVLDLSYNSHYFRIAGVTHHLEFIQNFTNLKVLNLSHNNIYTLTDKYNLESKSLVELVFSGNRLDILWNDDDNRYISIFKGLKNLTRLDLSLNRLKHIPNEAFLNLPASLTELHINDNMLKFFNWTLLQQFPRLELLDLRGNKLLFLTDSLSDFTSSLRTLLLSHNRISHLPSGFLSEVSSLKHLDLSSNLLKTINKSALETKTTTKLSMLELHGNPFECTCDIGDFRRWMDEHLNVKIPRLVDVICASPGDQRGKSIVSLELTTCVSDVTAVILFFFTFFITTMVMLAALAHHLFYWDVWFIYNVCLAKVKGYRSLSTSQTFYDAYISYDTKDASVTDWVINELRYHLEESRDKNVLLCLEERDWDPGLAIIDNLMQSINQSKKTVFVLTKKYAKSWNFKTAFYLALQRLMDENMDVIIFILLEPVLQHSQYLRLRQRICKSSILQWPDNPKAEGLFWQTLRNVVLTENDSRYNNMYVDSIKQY

[2] = biological target: T2, human TLR7 (Homo sapiens, UniProt Q9NYK1); assay: Human TLR7-specific reporter gene assay; type: cell-based; conditions: EC50 in human TLR7-specific reporter gene assay; Inactive = EC50 >100 μM
T2 sequence (Q9NYK1 27-1049): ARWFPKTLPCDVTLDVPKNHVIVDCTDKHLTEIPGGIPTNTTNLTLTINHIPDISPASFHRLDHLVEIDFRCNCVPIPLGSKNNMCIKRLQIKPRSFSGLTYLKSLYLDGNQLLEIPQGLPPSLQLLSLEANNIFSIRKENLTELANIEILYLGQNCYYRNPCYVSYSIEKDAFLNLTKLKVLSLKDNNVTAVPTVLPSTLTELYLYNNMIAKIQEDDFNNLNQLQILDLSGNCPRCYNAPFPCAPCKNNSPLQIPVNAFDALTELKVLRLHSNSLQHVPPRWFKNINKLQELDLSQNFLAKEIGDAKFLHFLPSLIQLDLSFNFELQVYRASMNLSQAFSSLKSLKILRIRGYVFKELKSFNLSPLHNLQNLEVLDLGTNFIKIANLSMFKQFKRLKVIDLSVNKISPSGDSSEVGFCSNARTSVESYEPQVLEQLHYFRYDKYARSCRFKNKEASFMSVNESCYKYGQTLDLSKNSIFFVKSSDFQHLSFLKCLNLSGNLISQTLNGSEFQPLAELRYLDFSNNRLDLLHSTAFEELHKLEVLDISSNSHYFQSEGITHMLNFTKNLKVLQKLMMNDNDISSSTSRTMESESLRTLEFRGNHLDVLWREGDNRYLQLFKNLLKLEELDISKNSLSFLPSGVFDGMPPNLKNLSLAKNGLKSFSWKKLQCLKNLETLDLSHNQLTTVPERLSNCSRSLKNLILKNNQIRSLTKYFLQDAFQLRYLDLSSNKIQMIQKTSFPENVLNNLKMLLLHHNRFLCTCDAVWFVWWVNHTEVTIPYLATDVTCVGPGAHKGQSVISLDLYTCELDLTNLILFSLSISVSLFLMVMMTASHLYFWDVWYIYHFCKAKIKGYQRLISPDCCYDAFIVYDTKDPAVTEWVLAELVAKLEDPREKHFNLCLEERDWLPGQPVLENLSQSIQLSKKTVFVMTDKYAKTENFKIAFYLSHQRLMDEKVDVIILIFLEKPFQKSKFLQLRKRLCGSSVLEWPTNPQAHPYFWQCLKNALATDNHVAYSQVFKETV

[3] = system: human TLR7 or human TLR8; type: cell-based; conditions: for agonistic activity (in words): primary TLR8/TLR7 reporter gene assays, receptor not given; for TLR8 versus TLR7 selectivity (in words): primary reporter gene screens
[4] = system: human peripheral blood mononuclear cells (hPBMC); assay: Cytokine induction in human PBMCs; type: cell-based; conditions: human PBMCs stimulated 12 h
[5] = system: New Zealand White rabbits; assay: Rabbit immunization with bovine α-lactalbumin and antigen-specific ELISA; type: in vivo; conditions: compared with 8c

Compound	Agonistic Activity (μM) TLR8 [1]	Agonistic Activity (μM) TLR7 [2]	agonistic activity (in words) [3]	TLR8 versus TLR7 selectivity (in words) [3]	proinflammatory cytokine induction in hPBMCs (in words) [4]	TLR8-agonistic potency/activity (in words) ([1]; hTLR8 reporter gene assay)	consistency of adjuvanticity (confidence intervals of antibody titers) [5]
CCCCCCNc1nc2ccccc2c2sc(CCC)nc12 [Compound 15b, N-hexyl-2-propylthiazolo[4,5-c]quinolin-4-amine]	Inactive	Inactive	devoid of any agonistic activity				
CC(C)(C)CCc1nc2c(N)nc3ccccc3c2s1 [Compound 8m, 2-(3,3-dimethylbutyl)thiazolo[4,5-c]quinolin-4-amine]	Inactive	Inactive	inactive				
CC[C@H](C)Cc1nc2c(N)nc3ccccc3c2s1 [Compound 8o, (S)-2-(2-methylbutyl)thiazolo[4,5-c]quinolin-4-amine]			active	substantially more TLR8-selective	inferior in their cytokine induction profiles		
CCCc1nc2c(NC=O)nc3ccccc3c2s1 [Compound 15d, N-(2-propylthiazolo[4,5-c]quinolin-4-yl)formamide]			active		near-complete loss of activity	comparable to that of 8c	
CCCC(=O)Nc1ccc2nc(N)c3nc(CCC)sc3c2c1 [Compound 13b, N-(4-amino-2-propylthiazolo[4,5-c]quinolin-8-yl)butyramide]	Inactive	Inactive	inactive				
CCCc1nc2c(N)nc3ccc(Br)cc3c2s1 [Compound 14, 8-bromo-2-propylthiazolo[4,5-c]quinolin-4-amine]	Inactive	Inactive	inactive				
CCCc1nc2c(NC(N)=O)nc3ccccc3c2s1 [Compound 15q, 1-(2-propylthiazolo[4,5-c]quinolin-4-yl)urea]	Inactive	Inactive	inactive				
CC(C)CCc1nc2c(N)nc3ccccc3c2s1 [Compound 8l, 2-isopentylthiazolo[4,5-c]quinolin-4-amine]	Inactive	Inactive	entirely inactive				
CCCCNc1nc2ccccc2c2sc(CCC)nc12 [Compound 15a, N-butyl-2-propylthiazolo[4,5-c]quinolin-4-amine]	Inactive	Inactive	devoid of any agonistic activity				
CCCc1nc2c(N)nc3ccc([N+](=O)[O-])cc3c2s1 [Compound 9, 8-nitro-2-propylthiazolo[4,5-c]quinolin-4-amine]	Inactive	Inactive	inactive				
CCCc1nc2c(NC(=N)N)nc3ccccc3c2s1 [Compound 17, 1-(2-propylthiazolo[4,5-c]quinolin-4-yl)guanidine]	Inactive	Inactive	inactive				
CC[C@H](C)c1nc2c(N)nc3ccccc3c2s1 [Compound 8n, (S)-2-(sec-butyl)thiazolo[4,5-c]quinolin-4-amine]			well tolerated	substantially more TLR8-selective	inferior in their cytokine induction profiles		
CCCCc1nc2c(N)nc3ccccc3c2s1 [Compound 8d, 2-butylthiazolo[4,5-c]quinolin-4-amine]							greater consistency and uniformity
CCCCc1nc2c(NC(C)=O)nc3ccccc3c2s1 [Compound 18b, N-(2-butylthiazolo[4,5-c]quinolin-4-yl)acetamide]	Inactive	Inactive	selective loss of activity				
CCCCCCCC(=O)Nc1nc2ccccc2c2sc(CCC)nc12 [Compound 15g, N-(2-propylthiazolo[4,5-c]quinolin-4-yl)octanamide]	Inactive	Inactive	inactive				
CCCCCCNc1ccc2nc(N)c3nc(CCC)sc3c2c1 [Compound 13a, N^8-hexyl-2-propylthiazolo[4,5-c]quinoline-4,8-diamine]	Inactive	Inactive	inactive				
CC(C)Cc1nc2c(N)nc3ccccc3c2s1 [Compound 8j, 2-isobutylthiazolo[4,5-c]quinolin-4-amine]			well tolerated	substantially more TLR8-selective	inferior in their cytokine induction profiles		
CCCCCCCCCCCCCCCC(=O)Nc1nc2ccccc2c2sc(CCC)nc12 [Compound 15h, N-(2-propylthiazolo[4,5-c]quinolin-4-yl)palmitamide]	Inactive	Inactive	inactive				
CCCC(=O)Nc1nc2ccccc2c2sc(CCC)nc12 [Compound 15f, N-(2-propylthiazolo[4,5-c]quinolin-4-yl)butyramide]		Inactive	active				
CCCc1nc2c(NC(=O)c3ccccc3)nc3ccccc3c2s1 [Compound 15i, N-(2-propylthiazolo[4,5-c]quinolin-4-yl)benzamide]	Inactive	Inactive	entirely inactive				
CC(C)(C)Cc1nc2c(N)nc3ccccc3c2s1 [Compound 8k, 2-neopentylthiazolo[4,5-c]quinolin-4-amine]	Inactive	Inactive	inactive				
